From patent US9629863B2, “CDK5 inhibitors and therapeutic uses thereof” (The Hong Kong University of Science and Technology, priority 2009, dated 2017)

Experiments:
Cdk5/p25 = Cdk5/p25 (Homo sapiens, UniProt Q00535); test: FRET-based Z'-LYTE Cdk5 kinase assay, Cdk5/p25; format: biochemical; conditions: for inhibition at 30 µM: compound 30 μM, 30 ng/ml Cdk5/p25, FIG. 3; for IC50: Cdk5/p25, Table 1; for inhibition at 200 µM: Cdk5/p25, at 200 μM; for mode of inhibition on Cdk5/p25 complex: 0.5, 1, 2 and 4 μM, increasing ATP, FIG. 11; for inhibitory effect on Cdk5/p25: FIG. 8-10, in words; for inhibition at 80 µM: Cdk5/p25, at 80 μM
Sequence of Cdk5/p25 (Q00535 whole entry, species assumed): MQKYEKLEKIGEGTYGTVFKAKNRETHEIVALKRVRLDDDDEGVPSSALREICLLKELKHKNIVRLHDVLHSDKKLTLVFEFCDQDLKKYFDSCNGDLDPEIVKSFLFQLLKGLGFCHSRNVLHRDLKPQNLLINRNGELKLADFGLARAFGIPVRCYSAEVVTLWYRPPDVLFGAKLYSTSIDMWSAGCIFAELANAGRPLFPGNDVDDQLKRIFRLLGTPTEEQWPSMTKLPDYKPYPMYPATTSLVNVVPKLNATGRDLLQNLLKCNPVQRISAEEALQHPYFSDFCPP
Sequence of Cdk5/p25 (Q15078 99-307 partner limits assumed, species assumed): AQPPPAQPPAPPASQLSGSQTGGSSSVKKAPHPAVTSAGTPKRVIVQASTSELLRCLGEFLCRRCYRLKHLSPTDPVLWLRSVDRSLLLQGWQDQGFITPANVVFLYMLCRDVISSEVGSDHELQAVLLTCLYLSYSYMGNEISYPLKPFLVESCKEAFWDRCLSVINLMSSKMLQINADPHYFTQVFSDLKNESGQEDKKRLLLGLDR
Description: (§1) Cdk5 kinase assay was performed as described in the instruction manual (Invitrogen, cat. no. PV3673). This assay employs a FRET-based, coupled-enzyme format and is based on the differential sensitivity of phosphorylated and non-phosphorylated peptides to proteolytic cleavage. The assay uses a synthetic peptide substrate (the Z′-LYTE™ peptide substrate) that is labeled with a donor fluorophore (coumarin) and an acceptor fluorophore (fluorescein) to make up a FRET pair. In the primary reaction, Cdk5 transfers the γ-phosphate of ATP to a serine/threonine residue on the substrate, while the presence of a kinase inhibitor in the primary reaction suppresses phosphorylation. […] Cleavage disrupts FRET between the donor and acceptor fluorophores on the non-phosphorylated substrate, while uncleaved phosphorylated substrate maintains FRET. The effectiveness of the compounds on inhibiting the Cdk5 activity is then measured by calculating the emission ratio.
(§2) The plate was then incubated for one hour at room temperature. Development solution was then added in the dark for another hour. […] To calculate the activity of cdk5/p25 and Cdk5/p35, Z′-LYTE phosphopeptide was used as a 100% phosphorylation control while nonphosphorylated Z′-LYTE peptide is used as a 0% phosphorylation control to establish the maximal and minimal emission ratio values which enable to calculate the percentage of kinase phosphorylation. To determine the inhibitory effect on cdk5 activity, fractions and compounds to be tested were included in the kinase reaction. Zero inhibition was determined by using DMSO (solvent) instead of the compounds in the reaction. […] Assays were done in quadruplicates and data was averaged from at least 4 independent experiments. Similar experimental protocols were performed for Cdk1/cyclin B and Cdk2/cyclin A kinase activity study. Activity of each kinase complex was evaluated by titration, and the resultant value of EC30 was used in the inhibitory study. Since activity of kinase complexes varies with different batches of preparation, EC30 will be determined in each new batch of kinases. […] Kinetic studies of compounds were performed by Cdk5/p25 kinase assays with various concentrations of ATP and tested compounds. The kinetic parameters were determined by a nonlinear least-squares program using GraphPad Prism 5 software.
(§3) Using the FRET-based Cdk5 kinase assay method described above, the compounds of the present invention were examined for their inhibitory effects on Cdk5 kinase activity. The amount of Cdk5/25 and Cdk5/p35 used for screening Cdk5 inhibitors is EC30 of the kinase complex and the EC30 was determined with a titration study of kinase complex. The effectiveness of the compounds on inhibiting Cdk5 activity was then measured by comparing the percent phosphorylation of peptide substrates by Cdk5 kinase in the presence of test compounds and percent phosphorylation of peptide substrates by Cdk5 without test compounds.
Seven natural compounds isolated from Rhodiola rosea (F199) were selected for IC50 and maximal inhibition determination. Various concentrations of the F199 compounds were incubated with Cdk5/p25. The effectiveness of the compounds on inhibiting Cdk5 activity was then calculated by comparing the percent phosphorylation of peptide substrates by Cdk5/p25 in the presence of test compounds and percent phosphorylation of peptide substrates by Cdk5/p25 without test compounds.

Cdk5/p35 = Cdk5/p35 (Homo sapiens, UniProt Q00535); test: FRET-based Z'-LYTE Cdk5 kinase assay, Cdk5/p35; format: biochemical; conditions: for inhibition at 30 µM: compound 30 μM, 30 ng/ml Cdk5/p35, FIG. 3; for inhibitory effect on Cdk5/p35: FIG. 8-10, in words
Sequence of Cdk5/p35 (Q00535 whole entry, species assumed): as the sequence (Q00535 whole entry, species assumed) above
Sequence of Cdk5/p35 (Q15078 whole entry partner, species assumed): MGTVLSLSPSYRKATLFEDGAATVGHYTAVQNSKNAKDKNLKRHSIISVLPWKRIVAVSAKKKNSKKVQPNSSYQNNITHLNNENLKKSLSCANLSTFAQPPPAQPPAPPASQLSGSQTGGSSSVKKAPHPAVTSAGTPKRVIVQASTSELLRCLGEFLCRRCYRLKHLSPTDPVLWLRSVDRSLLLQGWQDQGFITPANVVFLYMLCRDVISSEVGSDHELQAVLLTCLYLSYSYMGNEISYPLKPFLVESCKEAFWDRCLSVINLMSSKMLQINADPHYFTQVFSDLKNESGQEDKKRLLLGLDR
Description: as §1, §2, §3

Cdk5 = Cdk5 (Homo sapiens, UniProt Q00535); conditions: reported elsewhere, controls; cited from earlier work
Sequence of Cdk5 (Q00535 whole entry, species assumed): as the sequence (Q00535 whole entry, species assumed) above
Sequence of Cdk5 (Q15078 whole entry partner, species assumed): as the sequence (Q15078 whole entry partner, species assumed) above

rat cortical neurons = test: Aβ assay (MTT) in cortical neurons; format: cell-based; conditions: about 30 and 50 μM, Aβ25-35 10 μM, vs DMSO control
Description: Embryonic rat cortical neurons (7 DIV) were pre-treated with various concentrations of compounds (3-50 μM) and then co-incubated with Aβ25-35 (10 μM). After overnight incubation, the MTT assay was performed. Cell survival was calculated as a percentage compared to the vehicle control (DMSO). Assays were conducted in duplicates and data were compared with student-t test. *=P<0.05.
Cortical neurons at 7 DIV in culture isolated from embryonic day 18 rats were used as cell models in the assay. Toxicity caused by Aβ25-35 peptide in these cells was evaluated by MTT detection after […]. The Aβ assay was performed to investigate the ability of the invention to protect cortical neurons from cell death induced by exogenous Aβ25-35 peptide addition. Assays were done in duplicates and data was averaged from at least 3 independent experiments.
Exogenous addition of Aβ initiates cell death of neuronal cultures via apoptosis. The MTT assay, a well-known cell death assay, was performed to study the ability of the compounds of the present invention to prevent Aβ-induced excitotoxicity in primary cortical neuronal cells. Embryonic rat cortical neurons (7 DIV) were pre-treated with various concentrations of the compounds (3-50 μM) and then co-incubated with Aβ25-35 (10 μM). After overnight incubation, the MTT assay was performed. Cell survival was calculated as a percentage compared to the vehicle control (DMSO). Assays were conducted in duplicates and data were analyzed with student-t test. *=P<0.05. The results of exemplary compounds, F199-C6, F199-C34 and F199-C22 are presented in FIG. 5, FIG. 6 and FIG. 7, respectively.

Cdk1/cyclin B = Cdk1/cyclin B (Homo sapiens, UniProt P06493); test: Z'-LYTE kinase assay, Cdk1/cyclin B; format: biochemical; conditions: FIG. 8-10, in words
Sequence of Cdk1/cyclin B (P06493 whole entry, species assumed): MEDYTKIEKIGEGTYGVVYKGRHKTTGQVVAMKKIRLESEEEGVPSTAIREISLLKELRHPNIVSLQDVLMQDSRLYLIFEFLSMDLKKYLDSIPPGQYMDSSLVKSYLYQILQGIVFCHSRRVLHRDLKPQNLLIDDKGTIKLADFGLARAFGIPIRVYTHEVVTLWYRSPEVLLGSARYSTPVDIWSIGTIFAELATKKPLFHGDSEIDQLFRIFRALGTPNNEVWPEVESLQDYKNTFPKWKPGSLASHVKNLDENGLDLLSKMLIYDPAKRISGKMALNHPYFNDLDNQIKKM
Sequence of Cdk1/cyclin B (P14635 whole entry partner, species assumed): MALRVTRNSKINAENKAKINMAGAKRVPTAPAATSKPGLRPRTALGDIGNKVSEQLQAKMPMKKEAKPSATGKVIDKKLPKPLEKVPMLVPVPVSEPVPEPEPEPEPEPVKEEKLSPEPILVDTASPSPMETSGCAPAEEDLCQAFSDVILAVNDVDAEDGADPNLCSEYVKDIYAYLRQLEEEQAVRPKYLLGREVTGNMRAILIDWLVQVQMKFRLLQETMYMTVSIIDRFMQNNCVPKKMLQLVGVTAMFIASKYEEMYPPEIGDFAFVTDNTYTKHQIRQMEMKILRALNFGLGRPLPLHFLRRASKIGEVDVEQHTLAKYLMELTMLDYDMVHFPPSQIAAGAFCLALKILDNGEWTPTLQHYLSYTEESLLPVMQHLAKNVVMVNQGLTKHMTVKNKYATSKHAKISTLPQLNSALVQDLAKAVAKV
Description: (§4) Cdk5 kinase assay was performed by adding Z′-LYTE™ peptide substrate and ATP together with Cdk5/p25 or Cdk5/p35 kinase solution in a 384-well black polystyrene plate (Corning 3676). The plate was then incubated for one hour at room temperature. Development solution was then added in the dark for another hour. Finally, stop solution was added and the coumarin and fluorescein emission signals were measured on a fluorescence plate reader (Tecan, infinite F500) (excitation: 400 nm, emission 445 and […], respectively). To calculate the activity of cdk5/p25 and Cdk5/p35, Z′-LYTE phosphopeptide was used as a 100% phosphorylation control while nonphosphorylated Z′-LYTE peptide is used as a 0% phosphorylation control to establish the maximal and minimal emission ratio values which enable to calculate the percentage of kinase phosphorylation. To determine the inhibitory effect on cdk5 activity, fractions and compounds to be tested were included in the kinase reaction. Zero inhibition was determined by using DMSO (solvent) instead of the compounds in the reaction. […]. Assays were done in quadruplicates and data was averaged from at least 4 independent experiments. Similar experimental protocols were performed for Cdk1/cyclin B and Cdk2/cyclin A kinase activity study. Activity of each kinase complex was evaluated by titration, and the resultant value of EC30 was used in the inhibitory study. Since activity of kinase complexes varies with different batches of preparation, EC30 will be determined in each new batch of kinases. […] Kinetic studies of compounds were performed by Cdk5/p25 kinase assays with various concentrations of ATP and tested compounds. The kinetic parameters were determined by a nonlinear least-squares program using GraphPad Prism 5 software.

Cdk2/cyclin A = Cdk2/cyclin A (Homo sapiens, UniProt P24941); test: Z'-LYTE kinase assay, Cdk2/cyclin A; format: biochemical; conditions: FIG. 8-10, in words
Description: as §4

formalin-induced pain = test: Animal model of pain (formalin paw-licking); format: in vivo, mice
Description: Adult ICR mice (6-8 week-old) habituated in the experimental room for 3 days before the testing. Testing was conducted from 9 am to 3 pm. Mice were randomly grouped and weighed. Mice were pretreated with a single dose of F199-C16 (10-100 mg/kg, intraperitoneal injection) and then injected with 10 μl of 2.5% formalin in the subplantar of the right hind paw. The licking time (in seconds) was recorded during 0-10 minutes (early phase) and in 11-40 minutes (late phase) after formalin injection. The whole process was monitored and recorded by a digital monochrome video camera. Data were expressed as the mean±SEM. (*p<0.05; ANOVA, with Student-Newman Keuls test).
The effect of F199-C16 was examined in an animal model of pain. The pain was induced by injecting formalin into the paw of the mouse.

Structure (SMILES): CC[C@H](CC[C@@H](C)[C@H]1CC[C@H]2[C@@H]3CC=C4C[C@@H](O[C@@H]5O[C@H](CO)[C@@H](O)[C@H](O)[C@H]5O)CC[C@]4(C)[C@H]3CC[C@]12C)C(C)C [Compound F199-C1, daucosterol, reference compound]
- inhibition at 30 µM (Cdk5/p25): < 25%
- inhibition at 30 µM (Cdk5/p35): < 25%
- reported inhibition of Cdk5 activity (Cdk5): moderately inhibit Cdk5 activity

Structure (SMILES): O=c1c(O)c(-c2ccc(O)cc2)oc2cc(O)cc(O)c12 [Compound F199-C2, kaempferol]
- reported inhibition of Cdk5 activity (Cdk5): moderately inhibit Cdk5 activity

Structure (SMILES): O=C(O)c1cc(O)c(O)c(O)c1 [Compound F199-C4, gallic acid]
- IC50 (Cdk5/p25): 40.6 µM
- inhibition at 200 µM (Cdk5/p25; read-out: Maximum inhibition): 64.2%
- inhibition at 30 µM (Cdk5/p25): 25 to 50%
- inhibition at 30 µM (Cdk5/p35): 25 to 50%

Structure (SMILES): O=c1c(O)c(-c2ccc(O)cc2)oc2c(OC3OCC(O)C(O)C3O)c(O)cc(O)c12 (stereo not shown) [Compound F199-C6, rhodalin]
- IC50 (Cdk5/p25): 34.4 µM
- inhibition at 200 µM (Cdk5/p25; read-out: Maximum inhibition): 56.6%
- inhibition at 30 µM (Cdk5/p25): 25 to 50%
- inhibition at 30 µM (Cdk5/p35): 25 to 50%
- neuronal cell survival against Aβ toxicity (rat cortical neurons): significantly promoted neuronal cell survival

Structure (SMILES): CC1OC(Oc2c(O)cc(O)c3c(=O)c(O)c(-c4ccc(O)cc4)oc23)C(O)C(O)C1O (stereo not shown) [Compound F199-C16, litvinolin]
- mode of inhibition on Cdk5/p25 complex (Cdk5/p25): mixed inhibition
- IC50 (Cdk5/p25): 3.24 µM
- inhibition at 200 µM (Cdk5/p25; read-out: Maximum inhibition): 87.5%
- inhibitory effect on Cdk5/p25 (Cdk5/p25): milder inhibition
- inhibition at 30 µM (Cdk5/p25): 50 to 75%
- inhibitory effect on Cdk5/p35 (Cdk5/p35): milder inhibition
- inhibition at 30 µM (Cdk5/p35): 50 to 75%
- inhibitory effect on Cdk1/cyclin B (Cdk1/cyclin B): potently
- inhibitory effect on Cdk2/cyclin A (Cdk2/cyclin A): minimal
- licking time, early phase (0-10 min) (formalin-induced pain; 100 mg/kg i.p.): significantly reduced the licking time
- licking time, late phase (11-40 min) (formalin-induced pain; 100 mg/kg i.p.): significantly reduced the licking time
- licking time of right hind paw (formalin-induced pain; 10-100 mg/kg i.p., single dose, formalin): reduced the licking time of right hind paw in a dose-dependent manner

Structure (SMILES): O=C(OCC1OC(OC/C=C/c2ccccc2)C(O)C(O)C1O)c1cc(O)c(O)c(O)c1 (stereo not shown) [Compound F199-C22, 6-O-galloyl rosin]
- IC50 (Cdk5/p25): 20.1 µM
- inhibition at 80 µM (Cdk5/p25; read-out: Maximum inhibition): 46.5%
- inhibition at 30 µM (Cdk5/p25): < 25%
- inhibition at 30 µM (Cdk5/p35): < 25%
- neuronal cell survival against Aβ toxicity (rat cortical neurons): significantly promoted neuronal cell survival

Structure (SMILES): COc1ccc(-c2oc3c(O)c(O)cc(O)c3c(=O)c2O)cc1 [Compound F199-C23, 4′-methoxyherbacetin]
- mode of inhibition on Cdk5/p25 complex (Cdk5/p25): mixed inhibition
- IC50 (Cdk5/p25): 1.21 µM
- inhibition at 20 µM (Cdk5/p25; Cdk5/p25, at 20 μM, read-out: Maximum inhibition): 45%
- inhibitory effect on Cdk5/p25 (Cdk5/p25): inhibited similarly
- inhibition at 30 µM (Cdk5/p25): 50 to 75%
- inhibitory effect on Cdk5/p35 (Cdk5/p35): inhibited similarly
- inhibition at 30 µM (Cdk5/p35): 50 to 75%
- inhibitory effect on Cdk1/cyclin B (Cdk1/cyclin B): inhibited similarly
- inhibitory effect on Cdk2/cyclin A (Cdk2/cyclin A): minimal

Structure (SMILES): O=C(OCC1OC(Oc2ccc(O)cc2)C(O)C(O)C1O)c1cc(O)c(O)c(O)c1 (stereo not shown) [Compound F199-C34, 6-O-galloyl arbutin]
- IC50 (Cdk5/p25): 5.63 µM
- inhibition at 80 µM (Cdk5/p25; read-out: Maximum inhibition): 70%
- inhibitory effect on Cdk5/p25 (Cdk5/p25): potent inhibitory effect
- inhibition at 30 µM (Cdk5/p25): 50 to 75%
- inhibitory effect on Cdk5/p35 (Cdk5/p35): less effect
- inhibition at 30 µM (Cdk5/p35): 50 to 75%
- inhibitory effect on Cdk1/cyclin B (Cdk1/cyclin B): less effect
- inhibitory effect on Cdk2/cyclin A (Cdk2/cyclin A): less effect
- neuronal cell survival against Aβ toxicity (rat cortical neurons): significantly promoted neuronal cell survival

Structure (SMILES): O=C(O[C@@H]1Cc2c(O)cc(O)cc2O[C@@H]1c1cc(O)c(O)c(O)c1)c1cc(O)c(O)c(O)c1 [Compound F199-C35, epigallocatechin-3-gallate]
- IC50 (Cdk5/p25): 14.7 µM
